This note sets out measurements from patent US20050043371A1, “Aminoalcohol derivatives and their use as beta 3 adrenergic agonists” (Fujisawa Pharmaceutical Co. Ltd., priority 1999, published 2005).

In one series the test system is anesthetized dog. Kind of series: Effect on the increase in intravesical pressure induced by carbachol in anesthetized dog. The class given is in vivo. Particulars: 0.01 mg/kg injected intravenously 5 minutes before carbachol (1.8 μg/kg); female Beagle dogs under halothane anesthesia; N = 3; P < 0.01 vs Control (4.5 ± 0.3). The method, then:
Effect on the increase in intravesical pressure induced by carbachol in anesthetized dog
Female Beagle dogs weighing 8.0-15.0 kg were fasted for 24 hours and maintained under halothane anesthesia. A 12F Foley catheter was lubricated with water soluble jelly, inserted into the urethral orifice and advanced approximately 10 cm until the balloon tip was placed well inside the bladder. The balloon was then inflated with 5 ml of room air and catheter slowly withdrawn just part the first resistance that is felt at the bladder neck. Urine was completely drained out through the catheter, and 30 ml of biological saline was infused. The catheter was connected to pressure transducer, and intravesical pressure was continuously recorded. The test compound was injected intravenously at 5 minutes before the administration of carbachol (1.8 μg/kg).

SMILES strings stand for the structures.

For orientation: melting point means the temperature, or range, at which the solid turns liquid. Consider `COc1ccc(C(C[C@H](C)NC[C@H](O)COc2ccccc2)c2ccc(OC)cc2)cc1.O=C(O)C(=O)O`, for which the melting point was in the range of 79 to 94 °C.

Consider `CC(CC(c1ccc(O)cc1)c1ccc(O)cc1)NC[C@H](O)COc1ccccc1.Cl` (mixture of isomers) [Test Compound (1), (2S)-1-[[(2RS)-4,4-bis(4-hydroxyphenyl)-2-butyl]amino]-3-phenoxy-2-propanol hydrochloride] [listing 1 of 2 here], for which the melting point was 73 °C (dec.).

On to `CC(CC(c1ccc(O)cc1)c1ccc(O)cc1)NC[C@H](O)COc1ccccc1.Cl` (mixture of isomers) [Test Compound (1), (2S)-1-[[(2RS)-4,4-bis(4-hydroxyphenyl)-2-butyl]amino]-3-phenoxy-2-propanol hydrochloride] [listing 2 of 2 here], for which the “Increase in intravescial pressure (mmHg)” value with anesthetized dog was 2.5 ± 0.3 mmHg.

Consider `COc1ccc(C(C[C@@H](C)NC[C@H](O)COc2ccccc2)c2ccc(OC)cc2)cc1.O=C(O)C(=O)O`, for which the melting point lay in the range of 121 to 123 °C.
